Experiments:
GABA neurons = assay: Whole-cell patch recording in lumbar spinal cord slices; type: cell-based, mouse; conditions: spinal cord slices of PBN treated mice
[1] = system: mechanical hyperalgesia of the affected hind paw; assay: Mechanical hyperalgesia (von Frey foot withdrawal) after L5 spinal nerve ligation; type: in vivo; conditions: SNL mice, PBN 150 mg/kg i.p. or 100 μg i.t.
Procedure: Inhibition of neuron death using one of the anti-oxidant agents described above is examined in a spinal injury model as described below. The oxidation inhibitor used is phenyl-N-tert-butylnitrone, a ROS scavenger. Peripheral nerve injury is induced by tightly ligating the L5 spinal nerve under isoflurane anesthesia (2% induction and 1.5% maintenance). Seven days after SNL, mice are randomly divided into treatment and control groups. Mice belonging to one treatment group are injected by one of two different routes with phenyl-N-tert-butylnitrone, PBN (Sigma, St. Louis, Mo.). Doses of PBN used are 150 mg/kg (i.p., 0.1 ml) or 100 μg (i.t., 5 μl), dissolved in saline at a concentration of 20 mg/ml. Mice in the control groups are treated with the same volume of saline. […]
Pain behavior is tested by assessing mechanical hyperalgesia of the affected hind paw. […] Mechanical hyperalgesia of the hind paw is measured by determining the frequency of foot withdrawals to 10 stimuli applied with a von Frey (vF) filament (Stoelting, Wood Dale, Ill.). […] Response rates are calculated as a percentage of the number of positive responses/10 stimuli.

rat limbic system = conditions: pretreatment of rats, systemic kainic acid seizure; cited from earlier work

SMILES | action potential discharge (excitatory) pattern of surviving neurons (GABA neurons) | excitability and firing activity of GABA neurons (GABA neurons) | foot withdrawal to von Frey filament (pain behavior) [1] | activator protein-1- and NF-kB-binding activity (rat limbic system) | increased protein nitration (rat limbic system) | neuronal damage resulting from seizure activity in limbic structures (rat limbic system) | spectrin proteolysis (rat limbic system)
CC(C)(C)[N+]([O-])=Cc1ccccc1 [PBN, phenyl-N-tert-butylnitrone] | superior action potential discharge (excitatory) pattern | restore excitability and prevent suppression of firing activity | withdraw their foot less abruptly |  |  |  | 
COc1cccc(C=NCCN=Cc2cccc(OC)c2[O-])c1[O-].[Cl-].[Mn+3] [EUK-134] |  |  |  | reduction | reduction | reduction | reduction

— US11911504B2, “Apparatus and method for protecting neurons and reducing inflammation and scarring” (GALEN THERAPEUTICS LLC, priority 2018, dated 2024)
